# In US5225426A, “Thiazolidine-2,4-dione compound and method of treatment of diabetic complications” (Terumo Kabushiki Kaisha, priority 1990, dated 1993):
# Assays:
# [1] = molecular target: T1, aldose reductase (Rattus norvegicus, UniProt P07943); test: Determination of Aldose Reductase-inhibiting Activity; assay type: biochemical, Wistar type male rat (crystalline lens); settings: rat lens enzyme; 0.1 mM DL-glyceraldehyde, 0.03 mM NADPH, pH 7.0, 30° C., 30 minutes; read-out: 50% inhibition concentration (IC50)
# T1 construct: From the crystalline lens, aldose reductase was prepared; from tissue; host or cells: crystalline lens of five-week old male Wistar rat
# Procedure: A five-week old Wistar type male rat was sacrificed under anesthesia and immediately dissected to remove crystalline lens. From the crystalline lens, aldose reductase was prepared by following the Hyman et al's method [J. Biol. Chem., 240, 877-882 (1965)] with necessary modifications. The aldose reductase activity was determined by the Dufrane et al's method [Biochem. Med., 32, 99-105 (1984)]. In 400 μl of a 135 mM sodium-potassium phosphate buffer solution (pH 7.0) prepared in advance so as to contain 100 mM lithium sulfate, 0.03 mM NADPH (reducing type nicotinamide adenine dinucleotide phosphate), and 0.1 mM DL-glyceraldehyde as a substrate, 50 μl of the aforementioned aldose reductase and 50 μl of a sample of a varying concentration (having Compound 1, or Compound 2, or Compound 3 dissolved in ethanol) added thereto were left reacting at 30° C. for 30 minutes. Then, the reaction was stopped by addition of 0.15 ml of 0.5N hydrochloric acid. The NADP (oxide type nicotinamide adenine dinucleotide phosphate) produced by the reaction in the reaction mixture was converted into a fluorescent substance by the addition thereto of 0.5 ml of 6N sodium hydroxide containing 10 mM imidazole. After the elapse of 60 minutes following the conversion, the produced reaction mixture was tested for intensity of fluorescence. The intensity of fluorescence was determined by the use of a fluorescence tester (produced by Corona Denki K.K. and marketed under trademark designation of "MTP-100F Corona Microplate Reader") under the conditions of 360 nm of excitation wavelength and 460 nm of fluorescent wavelength. The intensity of fluorescence determined by repeating the procedure described above, except ethanol was added in the place of the sample was used as a control value. As the aldose reductase inhibiting activity of a sample, the concentration of the sample required for inhibiting 50% of the aldose reductase activity due to a decline of the intensity of fluorescence (i.e. 50% inhibition concentration: IC50 value) was obtained.
# [2] = tested on: blood sugar; test: Blood sugar drop ratio in streptozotocin diabetic rats; assay type: in vivo, Wistar type male rats; settings: oral, four days, blood 3 hours after administration
# Procedure: (§1) Groups each of five three-week old Wistar type male rats were used for the test. To the rats, streptozotocin was administered at a concentration of 65 mg/kg via the tail vein. Of these rats, those whose blood sugar values fell in the range of from 250 to 650 mg/dl one week after the administration were designated as diabetic rats. As a control medicine, Compound 4 represented by the formula VII was used. [drawing 9]
# (§2) The five groups, i.e. the group of untreated diabetic rats, the group of rats subjected to administration of control medicine (50 mg/kg×2/day), the group of rats subjected to administration of sample (100 mg/kg/day), and the group of normal rats, were tested. A given medicine was suspended in 5% gum arabic and orally administered continually for four days after the elapse of two weeks following the onset of diabetes. To the group of untreated diabetic rats and the group of normal rats, a 5% gum arabic solution […] was administered in a ratio of 10 ml/kg. After the elapse of three hours following the administration, the blood was extracted from each rat with the aid of heparin via the tail vein (for the determination of blood sugar) and the abdominal aorta.
# The PRC was tested for sorbitol content by the Malon et al's method [Diabetes, 29, 861-864 (1980)]. The determination of the blood sugar value was carried out by the alucose-oxidase method.
# The blood sugar drop ratio and the sorbitol accumulation inhibition ratio were calculated in accordance with Formula 1 and Formula 2.
# Blood sugar drop ratio (%)=(1-[(Average blood sugar value of the group of rats subjected to administration of sample or control medicine-Average blood sugar value of the group of normal rats)/(Average blood sugar value of the group of untreated diabetic rats-Average blood sugar value of the group of normal rats)])×100
# [3] = in vivo; settings: mouse, oral, ICR type male mice (five-week old)
# Procedure: The compounds 1, 2 and 3 of this invention were tested for acute toxicity by oral administration thereof to ICR type male mice (five-week old).
# [4] = tested on: Sorbitol in Red Blood Cells; test: Action to Curb Accumulation of Sorbitol in Red Blood Cells (streptozotocin diabetic rats); assay type: in vivo, Wistar type male rats; settings: control medicine 50 mg/kg×2/day, oral, four days; packed red cells, blood 3 hours after administration
# Procedure: as §1
# as §2, with “aorta. […]” for “aorta.”
# The blood sugar drop ratio and the sorbitol accumulation inhibition ratio were calculated in accordance with Formula 1 and Formula 2. […]
SMILES,IC50 [1] [µM],Blood sugar drop ratio ([2]; sample 100 mg/kg/day) [%],LD50 [3] [mg/kg],Blood sugar drop ratio ([2]; control medicine 50 mg/kg×2/day) [%],Sorbitol accumulation inhibition ratio [4] [%]
"O=C1NC(=O)C(Cc2ccc(C(=O)C=Cc3ccc(O)c(O)c3)cc2)S1 (centres unmarked) [Compound 1, 5-{4-[3-(3,4-dihydroxyphenyl)-2-propenoyl]benzyl}thiazolidine-2,4-dione]",0.52,46.8,≥ 1000,–,–
"COc1cc(C=CC(=O)c2ccc(CC3SC(=O)NC3=O)cc2)ccc1O (centres unmarked) [Compound 2, 5-{4-[3-(4-hydroxy-3-methoxyphenyl)-2-propenoyl]benzyl}thiazolidine-2,4-dione]",4.2,60.5,≥ 1000,–,–
"COc1cc(C=CC(=O)c2cccc(CC3SC(=O)NC3=O)c2)ccc1O (centres unmarked) [Compound 3, 5-{3-[3-(4-hydroxy-3-methoxyphenyl)-2-propenoyl]benzyl}thiazolidine-2,4-dione]",1.9,42.6,≥ 1000,–,–
"CC(=Cc1ccccc1)C=C1SC(=S)N(CC(=O)O)C1=O [Compound 4, reference compound]",–,–,–,7.2,90.3
